In ChEMBL document CHEMBL4818987, “Recent advances of podophyllotoxin/epipodophyllotoxin hybrids in anticancer activity, mode of action, and structure-activity relationship: An update (2010-2020)” (Eur J Med Chem, 2020):

Tests used:
K562/Adr = assay: Cytotoxicity against human K562/ADR cells incubated for 72 hrs by CCK8 assay; format: functional, cell-based
[1] = Resistance index, ratio of IC50 for human K562/ADR cells to IC50 for human K562 cells; format: functional
K562 = assay: Cytotoxicity against human K562 cells incubated for 72 hrs by CCK8 assay; format: functional, cell-based; settings: K562, 72 h
HeLa [2] = assay: Antiproliferative activity against human HeLa cells incubated for 48 hrs by MTT assay; format: functional, cell-based
HepG2 [3] = assay: Antiproliferative activity against human HepG2 cells incubated for 48 hrs by MTT assay; format: functional, cell-based; settings: HepG2, 48 h
MCF7 = assay: Antiproliferative activity against human MCF7 cells incubated for 48 hrs by MTT assay; format: functional, cell-based; settings: MCF7, 48 h
A549 [4] = assay: Antiproliferative activity against human A549 cells incubated for 48 hrs by MTT assay; format: functional, cell-based; settings: A549, 48 h
HeLa [5] = assay: Antiproliferative activity against human HeLa cells incubated for 24 hrs by MTT assay; format: functional, cell-based
A549 [6] = assay: Antiproliferative activity against human A549 cells incubated for 24 hrs by MTT assay; format: functional, cell-based; settings: A549, 24 h
Calu-1 = assay: Antiproliferative activity against human Calu-1 cells incubated for 24 hrs by MTT assay; format: functional, cell-based; settings: Calu-1, 24 h
HepG2 [7] = assay: Antiproliferative activity against human HepG2 cells incubated for 3 days by MTT assay; format: functional, cell-based; settings: HepG2, 72 h
A549 [8] = assay: Antiproliferative activity against human A549 cells incubated for 3 days by MTT assay; format: functional, cell-based; settings: A549, 72 h
HCT-116 = assay: Antiproliferative activity against human HCT116 cells incubated for 3 days by MTT assay; format: functional, cell-based; settings: HCT-116, 72 h

With `COc1cc([C@@H]2c3cc4c(cc3[C@H](OC(=O)/C=C/c3cccc(Cl)c3)[C@H]3COC(=O)[C@H]23)OCO4)cc(OC)c1OC` the IC50 (K562/Adr) was 11 nM, the “Ratio IC50” value [1] was 1.1 and the IC50 (K562) was 11 nM.

In the case of `COc1cc([C@@H]2c3cc4c(cc3[C@H](OC(=O)/C=C/c3ccc(C)cc3)[C@H]3COC(=O)[C@H]23)OCO4)cc(OC)c1OC`, the IC50 (K562/Adr) is reported as 11 nM, the “Ratio IC50” value [1] is reported as 1.1 and the IC50 (K562) is reported as 11 nM.

Molecule `CC[C@H]1O[C@@H](O[C@@H]2c3cc4c(cc3[C@@H](c3cc(OC)c(O)c(OC)c3)[C@H]3C(=O)OC[C@@H]32)OCO4)CC[C@H]1O` has an IC50 (HeLa [2]) of 41.6 nM, an IC50 (HepG2 [3]) of 41.6 nM and an IC50 (MCF7) of 41.6 nM. The IC50 (A549 [4]) was 41.6 nM.

`COc1cc([C@@H]2c3cc4c(cc3[C@H](OC(=O)CCCCC3CCSC(c5ccccc5C)S3)[C@H]3COC(=O)[C@H]23)OCO4)cc(OC)c1OC` (stereo partly drawn) showed an IC50 (HeLa [5]) of 2680 nM, an IC50 (A549 [6]) of 2680 nM and an IC50 (Calu-1) of 2680 nM.

In the case of `COc1ccc(/C=C/C(=O)O[C@H]2c3cc4c(cc3[C@@H](c3cc(OC)c(OC)c(OC)c3)[C@H]3C(=O)OC[C@@H]32)OCO4)cc1`, the IC50 (K562/Adr) is reported as 11 nM, the “Ratio IC50” value [1] is reported as 1.1 and the IC50 (K562) is reported as 11 nM.

`COc1cc([C@@H]2c3cc4c(cc3[C@@H](NC(=S)NC(=O)c3cccs3)[C@H]3COC(=O)[C@H]23)OCO4)cc(OC)c1OC` showed an IC50 (HepG2 [7]) of 100 nM, an IC50 (A549 [8]) of 100 nM and an IC50 (HCT-116) of 100 nM.

With `CCC[C@@H]1O[C@@H](O[C@H]2c3cc4c(cc3[C@@H](c3cc(OC)c(OC)c(OC)c3)[C@H]3C(=O)OC[C@@H]32)OCO4)CC[C@H]1O` the IC50 (HeLa [2]) was 41.6 nM, the IC50 (HepG2 [3]) was 41.6 nM and the IC50 (MCF7) was 41.6 nM. It also gave an IC50 (A549 [4]) of 41.6 nM.

With `COc1cc([C@@H]2c3cc4c(cc3[C@H](O[C@H]3CC[C@@H](O)[C@H](C(C)C)O3)[C@H]3COC(=O)[C@H]23)OCO4)cc(OC)c1OC` the IC50 (HeLa [2]) was 41.6 nM, the IC50 (HepG2 [3]) was 41.6 nM and the IC50 (MCF7) was 41.6 nM. The IC50 (A549 [4]) was 41.6 nM.

`COc1cc([C@@H]2c3cc4c(cc3[C@@H](NC(=S)NC(=O)c3cccc(Cl)c3)[C@H]3COC(=O)[C@H]23)OCO4)cc(OC)c1OC` gave an IC50 (HepG2 [7]) of 100 nM, an IC50 (A549 [8]) of 100 nM and an IC50 (HCT-116) of 100 nM.

`COc1cc([C@@H]2c3cc4c(cc3[C@H](OC(=O)CCCCC3CCSC(c5ccc(Cl)cc5)S3)[C@H]3COC(=O)[C@H]23)OCO4)cc(OC)c1OC` (stereo partly drawn) showed an IC50 (HeLa [5]) of 2680 nM, an IC50 (A549 [6]) of 2680 nM and an IC50 (Calu-1) of 2680 nM.

With `CC[C@H]1O[C@H](O[C@@H]2c3cc4c(cc3[C@@H](c3cc(OC)c(O)c(OC)c3)[C@H]3C(=O)OC[C@@H]32)OCO4)CC[C@H]1O` the IC50 (HeLa [2]) was 41.6 nM, the IC50 (HepG2 [3]) was 41.6 nM and the IC50 (MCF7) was 41.6 nM. It also gave an IC50 (A549 [4]) of 41.6 nM.

With `COc1ccc(C2SCCC(CCCCC(=O)O[C@H]3c4cc5c(cc4[C@@H](c4cc(OC)c(OC)c(OC)c4)[C@H]4C(=O)OC[C@@H]43)OCO5)S2)cc1OC` (stereo partly drawn) the IC50 (HeLa [5]) was 2680 nM, the IC50 (A549 [6]) was 2680 nM and the IC50 (Calu-1) was 2680 nM.

In the case of `COc1cc([C@@H]2c3cc4c(cc3[C@@H](NC(=S)NC(=O)c3ccccc3I)[C@H]3COC(=O)[C@H]23)OCO4)cc(OC)c1OC`, the IC50 (HepG2 [7]) is reported as 100 nM, the IC50 (A549 [8]) is reported as 100 nM and the IC50 (HCT-116) is reported as 100 nM.

Molecule `CCC[C@H]1O[C@@H](O[C@@H]2c3cc4c(cc3[C@@H](c3cc(OC)c(O)c(OC)c3)[C@H]3C(=O)OC[C@@H]32)OCO4)CC[C@H]1O` has an IC50 (HeLa [2]) of 41.6 nM, an IC50 (HepG2 [3]) of 41.6 nM and an IC50 (MCF7) of 41.6 nM. The IC50 (A549 [4]) was 41.6 nM.

Work on `COc1cc([C@@H]2c3cc4c(cc3[C@H](O[C@H]3CC[C@@H](O)[C@H](C)O3)[C@H]3COC(=O)[C@H]23)OCO4)cc(OC)c1OC` yielded an IC50 (HeLa [2]) of 41.6 nM, an IC50 (HepG2 [3]) of 41.6 nM and an IC50 (MCF7) of 41.6 nM. For the same molecule, the IC50 (A549 [4]) was 41.6 nM.

In the case of `COc1cc([C@@H]2c3cc4c(cc3[C@@H](O[C@@H]3CC[C@@H](O)[C@H](C(C)C)O3)[C@H]3COC(=O)[C@H]23)OCO4)cc(OC)c1O`, the IC50 (HeLa [2]) is reported as 41.6 nM, the IC50 (HepG2 [3]) is reported as 41.6 nM and the IC50 (MCF7) is reported as 41.6 nM. It also gave an IC50 (A549 [4]) of 41.6 nM.

Work on `COc1cc([C@@H]2c3cc4c(cc3[C@@H](O[C@@H]3CC[C@@H](O)[C@H](C)O3)[C@H]3COC(=O)[C@H]23)OCO4)cc(OC)c1O` yielded an IC50 (HeLa [2]) of 41.6 nM, an IC50 (HepG2 [3]) of 41.6 nM and an IC50 (MCF7) of 41.6 nM. It also gave an IC50 (A549 [4]) of 41.6 nM.

With `COc1cc([C@@H]2c3cc4c(cc3[C@H](OC(=O)CCCCC3CCSC(c5ccc(Br)cc5)S3)[C@H]3COC(=O)[C@H]23)OCO4)cc(OC)c1OC` (stereo partly drawn) the IC50 (HeLa [5]) was 2680 nM, the IC50 (A549 [6]) was 2680 nM and the IC50 (Calu-1) was 2680 nM.

With `COc1cc([C@@H]2c3cc4c(cc3[C@H](OC(=O)/C=C/c3ccc(F)cc3)[C@H]3COC(=O)[C@H]23)OCO4)cc(OC)c1OC` the IC50 (K562/Adr) was 11 nM, the “Ratio IC50” value [1] was 1.1 and the IC50 (K562) was 11 nM.

In the case of `COc1cc([C@@H]2c3cc4c(cc3[C@H](OC(=O)CCCCC3CCSC(c5ccc(C(C)C)cc5)S3)[C@H]3COC(=O)[C@H]23)OCO4)cc(OC)c1OC` (stereo partly drawn), the IC50 (HeLa [5]) is reported as 2680 nM, the IC50 (A549 [6]) is reported as 2680 nM and the IC50 (Calu-1) is reported as 2680 nM.
